Assay results as given in PubChem BioAssay AID1845197 (Molecular Pharmacology Branch, DTP, NCI, 2023).

Test system: 349418-098-R tumor spheroid viability
Assay: Anticancer human tumor 349418-098-R patient-derived lung adenocarcinoma cell line growth inhibition
Conditions: spheroids with HUVEC and MSC; for IC50: curve of first compound; for viability, T/C: stronger effect = lower value
Outline: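 Complex spheroids of malignant cells with endothelial cells and mesenchymal stem cells; agents alone or combined, from near clinical Cmax (or 10 microM if unknown) down in half-log steps, 0.25% DMSO final.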

[1] = second compound 30 pM, first compound 0.0316 µM
[2] = second compound 30 pM, first compound 0.1 µM
[3] = second compound 30 pM, first compound 0.316 µM
[4] = second compound 30 pM, first compound 1 µM
[5] = second compound 30 pM, first compound 3.16 µM
[6] = second compound 30 pM, first compound 10 µM
[7] = second compound 94.9 pM, first compound 0.0316 µM
[8] = second compound 94.9 pM, first compound 0.1 µM
[9] = second compound 94.9 pM, first compound 0.316 µM
[10] = second compound 94.9 pM, first compound 1 µM
[11] = second compound 94.9 pM, first compound 3.16 µM
[12] = second compound 94.9 pM, first compound 10 µM
[13] = second compound 0.0003 µM, first compound 0.0316 µM
[14] = second compound 0.0003 µM, first compound 0.1 µM
[15] = second compound 0.0003 µM, first compound 0.316 µM
[16] = second compound 0.0003 µM, first compound 1 µM
[17] = second compound 0.0003 µM, first compound 3.16 µM
[18] = second compound 0.0003 µM, first compound 10 µM
[19] = second compound 0.000949 µM, first compound 0.0316 µM
[20] = second compound 0.000949 µM, first compound 0.1 µM
[21] = second compound 0.000949 µM, first compound 0.316 µM
[22] = second compound 0.000949 µM, first compound 1 µM
[23] = second compound 0.000949 µM, first compound 3.16 µM
[24] = second compound 0.000949 µM, first compound 10 µM
[25] = second compound 0.003 µM, first compound 0.0316 µM
[26] = second compound 0.003 µM, first compound 0.1 µM
[27] = second compound 0.003 µM, first compound 0.316 µM
[28] = second compound 0.003 µM, first compound 1 µM
[29] = second compound 0.003 µM, first compound 3.16 µM
[30] = second compound 0.003 µM, first compound 10 µM
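Further: spheroids exposed to compound for 7 days before measurement.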
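Wherever viability, T/C is given: percent of vehicle control viability with 100% = DMSO-treated spheroids.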

With `COc1cc(C)[nH]c(=O)c1CN1CCc2c(Cl)cc(C(OC)C3COC3)c(Cl)c2C1=O` (stereo not given) + COc1cc2c(cc1O)CCNC21CSC2c3c(OC(C)=O)c(C)c4c(c3C(COC1=O)N1C(O)C3Cc5cc(C)c(OC)c(O)c5C(C21)N3C)OCO4 the IC50 (second compound 30 pM) was > 10000 nM, the IC50 (second compound 94.9 pM) was > 10000 nM and the IC50 (second compound 0.0003 µM) was > 10000 nM. The IC50 (second compound 0.000949 µM) was < 31.6 nM, the IC50 (second compound 0.003 µM) was < 31.6 nM and the viability, T/C [1] was 112%. It also gave a viability, T/C [2] of 106%, a viability, T/C [3] of 96.1% and a viability, T/C [4] of 97.2%. The viability, T/C [5] was 94.2%, the viability, T/C [6] was 93.3% and the viability, T/C [7] was 112%. It also gave a viability, T/C [8] of 111%, a viability, T/C [9] of 102% and a viability, T/C [10] of 99.2%. It also gave a viability, T/C [11] of 90.8%, a viability, T/C [12] of 95.8% and a viability, T/C [13] of 95.4%. For the same compound, the viability, T/C [14] was 85.8%, the viability, T/C [15] was 84.3% and the viability, T/C [16] was 79.9%. The viability, T/C [17] was 64%, the viability, T/C [18] was 53.1% and the viability, T/C [19] was 0.28%. It also gave a viability, T/C [20] of 0.39%, a viability, T/C [21] of 0.45% and a viability, T/C [22] of 0.46%. The viability, T/C [23] was 0.29%, the viability, T/C [24] was 0.33% and the viability, T/C [25] was 1.45%. For the same compound, the viability, T/C [26] was 1.46%, the viability, T/C [27] was 1.03% and the viability, T/C [28] was 1.48%. It also gave a viability, T/C [29] of 1.6% and a viability, T/C [30] of 2.3%.
`CNCc1ccc(-c2cc(-c3nc(-c4ccc(S(=O)(=O)C(C)C)cc4)cnc3N)on2)cc1` + CC[C@@]1(O)C(=O)OCc2c1cc1n(c2=O)Cc2cc3c(CN(C)C)c(O)ccc3nc2-1 showed an IC50 (second compound 0.003 µM) of 202 nM, an IC50 (second compound 0.00949 µM) of 160 nM and an IC50 (second compound 0.03 µM) of 147 nM. The IC50 (second compound 0.0949 µM) was < 9.49 nM, the IC50 (second compound 0.3 µM) was < 9.49 nM and the viability, T/C (second compound 0.003 µM, first compound 0.00949 µM) was 106%. It also gave a viability, T/C (second compound 0.003 µM, first compound 0.03 µM) of 96.8%, a viability, T/C (second compound 0.003 µM, first compound 0.0949 µM) of 95% and a viability, T/C (second compound 0.003 µM, first compound 0.3 µM) of 26.4%. It also gave a viability, T/C (second compound 0.003 µM, first compound 0.949 µM) of 6.42%, a viability, T/C (second compound 0.003 µM, first compound 3 µM) of 1.25% and a viability, T/C (second compound 0.00949 µM, first compound 0.00949 µM) of 103%. The viability, T/C (second compound 0.00949 µM, first compound 0.03 µM) was 96.3%, the viability, T/C (second compound 0.00949 µM, first compound 0.0949 µM) was 78.2% and the viability, T/C (second compound 0.00949 µM, first compound 0.3 µM) was 15.9%. For the same compound, the viability, T/C (second compound 0.00949 µM, first compound 0.949 µM) was 6.27%, the viability, T/C (second compound 0.00949 µM, first compound 3 µM) was 0.63% and the viability, T/C (second compound 0.03 µM, first compound 0.00949 µM) was 89.1%. It also gave a viability, T/C (second compound 0.03 µM, first compound 0.03 µM) of 83.9%, a viability, T/C (second compound 0.03 µM, first compound 0.0949 µM) of 74.5% and a viability, T/C (second compound 0.03 µM, first compound 0.3 µM) of 10.1%. For the same compound, the viability, T/C (second compound 0.03 µM, first compound 0.949 µM) was 3.96%, the viability, T/C (second compound 0.03 µM, first compound 3 µM) was 0.78% and the viability, T/C (second compound 0.0949 µM, first compound 0.00949 µM) was 25.5%. The viability, T/C (second compound 0.0949 µM, first compound 0.03 µM) was 22%, the viability, T/C (second compound 0.0949 µM, first compound 0.0949 µM) was 12.8% and the viability, T/C (second compound 0.0949 µM, first compound 0.3 µM) was 4.56%. It also gave a viability, T/C (second compound 0.0949 µM, first compound 0.949 µM) of 3.43%, a viability, T/C (second compound 0.0949 µM, first compound 3 µM) of 0.31% and a viability, T/C (second compound 0.3 µM, first compound 0.00949 µM) of 3.32%. It also gave a viability, T/C (second compound 0.3 µM, first compound 0.03 µM) of 4.32%, a viability, T/C (second compound 0.3 µM, first compound 0.0949 µM) of 3.68% and a viability, T/C (second compound 0.3 µM, first compound 0.3 µM) of 3.02%. It also gave a viability, T/C (second compound 0.3 µM, first compound 0.949 µM) of 2.18% and a viability, T/C (second compound 0.3 µM, first compound 3 µM) of 0.36%.
With `CC1COCCN1c1cc(-c2ccnn2C)c2ccnc(-c3ccn[nH]3)c2n1` (stereo not given) + COc1cc2c(cc1O)CCNC21CSC2c3c(OC(C)=O)c(C)c4c(c3C(COC1=O)N1C(O)C3Cc5cc(C)c(OC)c(O)c5C(C21)N3C)OCO4 the IC50 (second compound 30 pM) was 63.1 nM, the IC50 (second compound 94.9 pM) was 36.5 nM and the IC50 (second compound 0.0003 µM) was < 31.6 nM. The IC50 (second compound 0.000949 µM) was < 31.6 nM, the IC50 (second compound 0.003 µM) was < 31.6 nM and the viability, T/C [1] was 88.5%. The viability, T/C [2] was 24.3%, the viability, T/C [3] was 13.4% and the viability, T/C [4] was 12.1%. It also gave a viability, T/C [5] of 12.2%, a viability, T/C [6] of 11.8% and a viability, T/C [7] of 54.9%. For the same compound, the viability, T/C [8] was 16.2%, the viability, T/C [9] was 9.93% and the viability, T/C [10] was 10.6%. For the same compound, the viability, T/C [11] was 12.4%, the viability, T/C [12] was 10.6% and the viability, T/C [13] was 12%. It also gave a viability, T/C [14] of 4.5%, a viability, T/C [15] of 5.77% and a viability, T/C [16] of 6.89%. The viability, T/C [17] was 7.2%, the viability, T/C [18] was 7.37% and the viability, T/C [19] was 0.38%. It also gave a viability, T/C [20] of 0.68%, a viability, T/C [21] of 0.46% and a viability, T/C [22] of 0.39%. The viability, T/C [23] was 0.25%, the viability, T/C [24] was 0.23% and the viability, T/C [25] was 1.52%. The viability, T/C [26] was 1.22%, the viability, T/C [27] was 1.66% and the viability, T/C [28] was 1.39%. It also gave a viability, T/C [29] of 1.43% and a viability, T/C [30] of 1.5%.
